Assay results: the NIST ThermoML archive (doi:10.1021/je1005533)

Experiment: refractive index (other wavelength) (dimensionless); xn = mol fraction of the nth substance listed
Settings: 101.3 kPa, Liquid, Wavelength=632.8 nm, Standard Abbe refractometry

CCCCCCCCCCCCCCCC [hexadecane] + COC(=O)OC
Settings	refractive index
308.19 K, x2 = 0.132	1.4228
308.21 K, x2 = 0	1.427
308.29 K, x2 = 0.397	1.4128
308.35 K, x2 = 0.219	1.4197
308.4 K, x2 = 0.291	1.417
309.24 K, x2 = 0	1.4265
309.25 K, x2 = 0.132	1.4224
309.32 K, x2 = 0.397	1.4123
309.54 K, x2 = 0.291	1.4164
309.66 K, x2 = 0.219	1.4191
310.21 K, x2 = 0	1.4261
310.33 K, x2 = 0.132	1.4219
310.38 K, x2 = 0.397	1.4118
310.83 K, x2 = 0.291	1.4158
311.09 K, x2 = 0.219	1.4185
311.24 K, x2 = 0	1.4256
311.39 K, x2 = 0.132	1.4214
311.42 K, x2 = 0.397	1.4113
312.09 K, x2 = 0.291	1.4153
312.18 K, x2 = 0.6	1.4005
312.2 K, x2 = 0.517	1.4052
312.3 K, x2 = 0	1.4252
312.43 K, x2 = 0.132	1.421
312.46 K, x2 = 0.397	1.4108
312.54 K, x2 = 0.219	1.4179
313.16 K, x2 = 0.517	1.4048
313.32 K, x2 = 0.6	1.3999
313.33 K, x2 = 0.291	1.4147
313.34 K, x2 = 0	1.4248
313.51 K, x2 = 0.132	1.4206
313.53 K, x2 = 0.397	1.4104
313.95 K, x2 = 0.219	1.4173
314.26 K, x2 = 0.517	1.4043
314.44 K, x2 = 0	1.4244
314.44 K, x2 = 0.6	1.3994
314.55 K, x2 = 0.132	1.4201
314.62 K, x2 = 0.397	1.41
314.63 K, x2 = 0.291	1.4142
315.34 K, x2 = 0.517	1.4038
315.5 K, x2 = 0.6	1.3989
315.54 K, x2 = 0	1.4239
315.57 K, x2 = 0.132	1.4197
315.59 K, x2 = 0.219	1.4166
315.71 K, x2 = 0.397	1.4094
315.92 K, x2 = 0.291	1.4136
316.19 K, x2 = 0.689	1.3925
316.42 K, x2 = 0.517	1.4033
316.45 K, x2 = 0.804	1.3827
316.55 K, x2 = 0	1.4235
316.56 K, x2 = 0.6	1.3984
316.64 K, x2 = 0.132	1.4192
316.73 K, x2 = 0.397	1.409
316.86 K, x2 = 0.872	1.3751
317.02 K, x2 = 0.689	1.3921
317.08 K, x2 = 0.219	1.416
317.2 K, x2 = 0.291	1.4131
317.25 K, x2 = 0.804	1.3823
317.51 K, x2 = 0.517	1.4028
317.56 K, x2 = 0	1.4231
317.67 K, x2 = 0.132	1.4188
317.67 K, x2 = 0.6	1.3979
317.74 K, x2 = 0.872	1.3747
317.81 K, x2 = 0.397	1.4085
317.89 K, x2 = 0.689	1.3917
318.06 K, x2 = 0.804	1.3819
318.49 K, x2 = 0.291	1.4125
318.5 K, x2 = 0.219	1.4154
318.55 K, x2 = 0.872	1.3743
318.61 K, x2 = 0	1.4226
318.74 K, x2 = 0.132	1.4183
318.84 K, x2 = 0.689	1.3913
318.89 K, x2 = 0.397	1.408
318.91 K, x2 = 0.804	1.3815
319.4 K, x2 = 0.872	1.3739
319.74 K, x2 = 0.689	1.3909
319.79 K, x2 = 0.804	1.381
320.28 K, x2 = 0.872	1.3735
320.64 K, x2 = 0.804	1.3806
